The term IC50 denotes the midpoint of a concentration-inhibition curve.

Where two headings read alike, the source gives them in different places. A value given as a limit tells only on which side of the number the result lay.

In data set [1] the test system is 4T1 cells. Briefly: Boyden chamber invasion assay, 4T1. It is filed as cell-based, mouse. To be noted: for Effect on invasion: 4T1, concentration as low as 0.1 μM, 24h. As for the experimental part: (§1) The invasive property of MDA-MB-231 and 4T1 cells was determined using the Boyden-chamber invasion assay. Cells suspended in serum-free media were plated (120–150,000 cells/well) onto polycarbonate transwell inserts (8 μm pore size, BD Biosciences) coated with matrigel (6%) (BD Biosciences), separating the top and bottom chambers (50 μl/filter). […] The invasive property of cells was observed 24h after treatment by fixing cells in formalin and staining with 0.1% crystal violet (Sigma-Aldrich Canada Ltd). Cells attached on the upper surface of the insert (top chamber) were removed by gently scraping away with a cotton swab, whereas those that invaded onto the lower side of the insert were observed using a microscope (Leica DM IL inverted microscope, 10X). Images of five non-overlapping fields of invading cells were captured using the Leica DFC300FX camera and quantification was done using the Scion Image Analysis (3.53.0.0) software and ImageJ 1.46r software. The results were expressed in terms of percentage of invading cells relative to control and the bar graphs represent the average of three independent experiments.

In data set [2] the test system is MDA-MB-231 cells. Nature of the data set: Boyden chamber invasion assay, MDA-MB-231. To be noted: for Effect on invasion: MDA-MB-231, concentration as low as 0.1 μM, 24h. In kind it is cell-based, human. As for the experimental part:
as §1

Data set [3] addresses T1, EGFR (Homo sapiens, UniProt P00533).
T1 construct: purchased Enzo Life Sciences Inc, NY, USA; Signal Chem, Richmond, Canada
Briefly: In vitro kinase assay, EGFR. The following applies: ATP 50 μM, average of three independent experiments in duplicate, read-out: IC50 EGFR kinase inhibition. It is filed as biochemical. As for the experimental part:
(§2) The EGFR and c-Src kinase assays were performed in 96-well plates (NuncMaxisorp) coated with PGT (poly L-glutamic acid L-tyrosine, 4:1, Sigma Aldrich, MO, USA) and incubated at 37°C for 48h prior to using. PGT served as the substrate to be phosphorylated by EGFR (Enzo Life Sciences Inc, NY, USA, Signal Chem, Richmond, Canada) and c-Src (Enzo Life Sciences Inc, NY, USA, Signal Chem, Richmond, Canada) in the presence of ATP (50 μM). […] To each well, 15 ng of EGFR (20 μg/ml) or 6 ng of c-Src (0.1 μg/μl) were added. The phosphorylated substrate was detected using an HRP-conjugated anti-phosphotyrosine antibody (Santa Cruz Biotechnology, CA). The signal was developed by the addition of 3, 3’, 5, 5’-tetramethylbenzidine peroxidase substrate (Kierkegaard and Perry Laboratories, Gaithersburg, MD) and the colorimetric reaction was monitored at 450 nm using a microplate reader ELx808 (BioTek Instruments). The IC50 values were calculated using GraphPad Prism 6.0 (GraphPadSoftware, Inc., San Diego, CA). Each experiment was carried out at least three times, in duplicate.

The target of data set [4] is T2, c-Src (Homo sapiens, UniProt P12931).
T2 construct: purchased Enzo Life Sciences Inc, NY, USA; Signal Chem, Richmond, Canada
T2 sequence (P12931 whole entry): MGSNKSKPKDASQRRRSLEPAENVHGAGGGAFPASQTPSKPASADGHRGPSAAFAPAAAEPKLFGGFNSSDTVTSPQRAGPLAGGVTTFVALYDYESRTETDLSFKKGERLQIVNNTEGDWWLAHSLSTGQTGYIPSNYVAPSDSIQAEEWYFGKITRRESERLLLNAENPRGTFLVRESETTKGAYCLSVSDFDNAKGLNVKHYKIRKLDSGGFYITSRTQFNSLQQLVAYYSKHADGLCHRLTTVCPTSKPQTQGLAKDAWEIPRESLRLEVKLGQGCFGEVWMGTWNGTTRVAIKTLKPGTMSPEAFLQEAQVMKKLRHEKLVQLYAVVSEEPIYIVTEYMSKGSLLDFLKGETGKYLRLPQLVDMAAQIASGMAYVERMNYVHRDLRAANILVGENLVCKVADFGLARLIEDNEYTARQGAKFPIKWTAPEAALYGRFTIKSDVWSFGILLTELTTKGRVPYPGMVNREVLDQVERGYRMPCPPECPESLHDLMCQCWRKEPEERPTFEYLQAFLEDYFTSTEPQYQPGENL
Briefly: In vitro kinase assay, c-Src. To be noted: ATP 50 μM, read-out: IC50 c-Src kinase inhibition. In kind it is biochemical. As for the experimental part:
as §2

Data set [5] in a line: LC-MS analysis of AL776 hydrolysis in plasma in vivo. More on the design: species or system CD-1 mice. To be noted: AL776 80 mg/kg i.v., after 30 min. The procedure:
CD-1 mice were divided into groups of three and treated with 80 mg/kg of AL776, injected intraperitoneally (i.p) or intravenously (i.v). Mice were sacrificed and their plasma was collected for further analysis after 0, 5, 15 and 30 min after drug treatment. Plasma samples were extracted using twice the volume of methanol and lysed at 13,000 rpm for 30 min at 4°C. The resulting supernatant from each sample was collected, filtered and evaporated to dryness before reconstituting in 100 μL of methanol. LC-MS analyses were performed on a Synapt G2-S instrument coupled with an Acquity UPLC Class I system both from Waters. Elution rate was set at 500 μL/min using an Eclipse XDB C8, 3.5 um, 2.1 x 100 mm chromatographic column from Agilent Technologies. The experiments were performed with the following eluents: 0.1% aqueous formic acid (eluent A) and methanol (eluent B). The initial mobile phase was 30% B, which was maintained for 0.2 min at the beginning of the run. The following gradient elution was subsequently applied: 30 to 50% B from 0.2 to 4 min; 50 to 80% B from 4 to 10 min; held at 80% B from 10 to 11 min. Thereafter, eluent B was decreased to 30% in 0.2 min and held constant for up to 15 min to allow the column to equilibrate. Each sample was diluted with methanol in order to avoid detector saturation and […] aliquots of the resulting solutions were injected. Analyses were performed with the electrospray interface in positive ion mode and mass spectra acquired from m/z 100 to 1200. For accurate mass determination, Leucine Enkephalin was used as lock mass. The MassLynx software was used for instrument control, data acquisition and data processing.

The subject of data set [6] is 4T1 cells. Nature of the data set: Growth inhibition, SRB assay, 4T1. The following applies: Mus musculus, 4T1, 120 h, read-out: IC50 growth inhibition 4T1.
Description: (§3) Growth inhibition was measured in cells using the sulforhodamine B (SRB) assay [48]. […] The plates were subsequently rinsed with 1% acetic acid, and allowed to dry overnight. […] The results were analyzed using GraphPad Prism 6.0 (GraphPadSoftware, Inc., San Diego, CA) and the sigmoidal dose response curve was used to determine IC50 values. Each experiment was carried out at least four times, in triplicate.
The subject of data set [7] is MDA-MB-231 cells. Briefly: Growth inhibition, SRB assay, MDA-MB-231. The following applies: Homo sapiens, MDA-MB-231, 120 h, read-out: IC50 growth inhibition MDA-MB-231. On the technique in general: Sulforhodamine B stains cellular protein and so reports cell mass.
Description: as §3
For data set [8], the system named is NIH3T3 wild type cells. Nature of the data set: Growth inhibition, sulforhodamine B (SRB) assay, NIH3T3 wild type. The following applies: Mus musculus, NIH3T3, 120 h, read-out: IC50 growth inhibition NIH3T3 – Wt.
Description: as §3
Data set [9] has as its target T1, EGFR. Briefly: Published EGFR kinase inhibition of AL621. To be noted: published IC50 of AL621 compared with AL776. It is filed as biochemical.
Data set [10] has as its target T1, EGFR. More on the design: method as in PMID 22943437. To be noted: read-out: IC50 EGFR kinase inhibition (published); cited from earlier work.
The mark [11] stands for this setting: average of three independent experiments in duplicate.

T1 sequence (P00533 25-1210): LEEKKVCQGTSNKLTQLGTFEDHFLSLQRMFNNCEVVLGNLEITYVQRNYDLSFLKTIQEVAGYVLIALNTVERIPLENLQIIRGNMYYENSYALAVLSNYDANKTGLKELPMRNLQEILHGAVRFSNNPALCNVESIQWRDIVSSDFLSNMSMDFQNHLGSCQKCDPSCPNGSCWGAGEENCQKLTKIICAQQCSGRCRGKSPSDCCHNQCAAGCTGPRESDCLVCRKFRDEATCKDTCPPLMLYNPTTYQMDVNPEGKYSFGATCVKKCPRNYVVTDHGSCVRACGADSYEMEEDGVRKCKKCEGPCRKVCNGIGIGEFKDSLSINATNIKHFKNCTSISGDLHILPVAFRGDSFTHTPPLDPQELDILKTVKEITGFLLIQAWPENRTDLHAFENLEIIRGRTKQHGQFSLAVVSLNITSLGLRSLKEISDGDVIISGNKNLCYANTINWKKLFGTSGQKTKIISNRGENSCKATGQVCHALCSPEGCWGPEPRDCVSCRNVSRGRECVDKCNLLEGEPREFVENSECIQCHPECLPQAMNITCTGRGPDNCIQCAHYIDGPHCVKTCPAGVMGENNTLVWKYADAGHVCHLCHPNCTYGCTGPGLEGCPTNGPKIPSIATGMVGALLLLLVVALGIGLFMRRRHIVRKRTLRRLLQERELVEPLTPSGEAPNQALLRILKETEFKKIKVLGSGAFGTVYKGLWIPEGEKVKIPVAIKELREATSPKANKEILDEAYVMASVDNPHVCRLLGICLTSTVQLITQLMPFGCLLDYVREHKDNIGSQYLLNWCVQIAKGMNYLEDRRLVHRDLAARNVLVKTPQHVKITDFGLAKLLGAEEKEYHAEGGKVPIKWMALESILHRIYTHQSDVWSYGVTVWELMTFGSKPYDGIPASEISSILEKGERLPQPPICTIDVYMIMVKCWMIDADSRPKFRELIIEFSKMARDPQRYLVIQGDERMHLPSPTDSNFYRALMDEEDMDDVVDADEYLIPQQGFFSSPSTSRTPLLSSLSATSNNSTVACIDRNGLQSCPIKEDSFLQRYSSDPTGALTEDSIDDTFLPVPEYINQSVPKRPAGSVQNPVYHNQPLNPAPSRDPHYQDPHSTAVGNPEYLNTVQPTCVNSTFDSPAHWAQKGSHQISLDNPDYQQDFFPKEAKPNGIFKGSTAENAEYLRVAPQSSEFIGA

Regarding `COc1cc2ncnc(Nc3ccc(F)c(Cl)c3)c2cc1OCCCN1CCOCC1` [Gefitinib, gefitinib], the “Anti-invasive effect weaker than dasatinib” value in data set [1] (4T1) and in data set [2] (MDA-MB-231) was 2-3 fold in each case. For the same compound, the Effect on invasion result in data set [1] and in data set [2] was “mostly unable to block invasion” throughout.
Take `Cc1nc(Nc2ncc(C(=O)Nc3c(C)cccc3Cl)s2)cc(N2CCN(CCOC(=O)CCC(=O)Nc3ccc4ncnc(Nc5cccc(Cl)c5)c4c3)CC2)n1` [IV]: the figures for the IC50 in data set [3] and in data set [4] (setting [11]) were 400 ± 100 nM and 8 ± 3 nM, respectively.
For the compound `Cc1nc(Nc2ncc(C(=O)Nc3c(C)cccc3Cl)s2)cc(N2CCN(CCO)CC2)n1` [Dasatinib, dasatinib, reference compound], the Effect on invasion result in data set [1] and in [2] was “strongly inhibited invasion” in each case. Also, the “Plasma level as metabolite of AL776” value in [5] is on record as “abundant levels”. The IC50 in [6] is 50 ± 20 nM; in data set [7], 20 ± 10 nM; in data set [8] it was 16400 ± 5200 nM.
Take `Cc1nc(Nc2ncc(C(=O)Nc3c(C)cccc3Cl)s2)cc(N2CCN(CCOC(=O)OCCN3CCN(CCNc4ccc5ncnc(Nc6cccc(Br)c6)c5c4)CC3)CC2)n1` [VI]: the IC50 worked out at 1100 ± 300 nM in data set [3] and 40 ± 10 nM in [4] (setting [11]).
As for `Cc1nc(Nc2ncc(C(=O)Nc3c(C)cccc3Cl)s2)cc(N2CCN(CCOC(=O)c3cnc(C(=O)Nc4ccc5ncnc(Nc6cccc(Cl)c6)c5c4)cn3)CC2)n1` [III], the IC50 in [3] is 600 ± 200 nM; in data set [4], less than 0.1 nM.
On to `CN(CCO)Cc1ccc(C(=O)Nc2ccc3ncnc(Nc4cccc(Cl)c4)c3c2)cc1` [AL621], for which, in data set [9], the “EGFR kinase potency relative to intact AL776” value was “ca. 40 fold”. The “Plasma level as metabolite of AL776” value in data set [5] was “abundant levels”. Besides, the IC50 in data set [10] is 3 nM.
